In ChEMBL document CHEMBL5360559, “Machine learning- and structure-based discovery of a novel chemotype as FXR agonists for potential treatment of nonalcoholic fatty liver disease” (Eur J Med Chem, 2023):

Tests used:
[1] = tested on: HepG2; assay: Induction of dyslipidemia in human HepG2 cells assessed as downregulation of ApoA1 gene expression at 10 uM by qPCR analysis; format: toxicity, cell-based; conditions: hepg2, 10 µM
[2] = tested on: HepG2; assay: Induction of dyslipidemia in human HepG2 cells assessed as downregulation of ApoC3 gene expression at 10 uM by qPCR analysis; format: toxicity, cell-based; conditions: hepg2, 10 µM

CC[C@H]1[C@@H](O)[C@@H]2[C@H](CC[C@]3(C)[C@@H]([C@H](C)CCC(=O)O)CC[C@@H]23)[C@@]2(C)CC[C@@H](O)C[C@@H]12 [OBETICHOLIC ACID] was tested, and the Activity [1] was “Toxic” and the Activity [2] was “Toxic”.
